The values below come from patent US10988433B2, “Cyclohexyl GPR40 agonists for the treatment of type II diabetes” (Janssen Pharmaceutica NV, priority 2016, dated 2021).

pEC50: −log10 of the molar value.

For experiment [1], the target named is T1, human GPR40 (Homo sapiens, UniProt O14842).
T1 construct: expressed in transfected cells
Briefly: GPR40 calcium flux assay, HEK293 cells stably expressing human GPR40. The class given is cell-based. Conditions: transfected HEK293 cells stably expressing human GPR40, Fluo 8 dye, read-out: hGPR40 Ca2+ Assay EC50. The method, then:
(§1) Compounds were tested in a calcium flux assay using transfected HEK293 cells stably expressing either human GPR40 or rat GPR40. Human GPR40 expressing cells were cultured in DMEM-High Glucose media supplemented with 10% fetal bovine serum, 1×L-Glutamine, 1×Penicillin/Streptomycin and 500 μg/mL G418. Rat GPR40 expressing cells were cultured in DMEM-High Glucose media supplemented with 10% fetal bovine serum and 1 μg/mL puromycin. Cells were plated into poly-D-lysine coated 384-well plates and cultured overnight in a 37° C. humidified tissue culture incubator under 5% CO2/[…] atmosphere. On the day of the experiment, the culture media was replaced with assay buffer (HBSS, 20 mM HEPES, 0.1% BSA) and the cells incubated at 37° C. for 1 h. Calcium-sensitive fluorescent dye (Fluo 8 No-Wash Calcium Dye, ABD Bioquest) was then added and the cells incubated for another 30 min at 37° C. followed by 15 min at room temperature while protected from the light. The cell plate and a plate of diluted compounds of Formula (I) were loaded into a fluorescent plate reader that added compounds onto the cells while measuring the fluorescence intensity of each well. The plate reader recorded fluorescence intensity at 1 second intervals for 8 min and provided the data for analysis in an Excel format. EC50 values were calculated using Prism (GraphPad) software.
(Calcium flux is commonly read through the fluorescence of an indicator in the cells.)

Experiment [2] concerns the target T2, rat GPR40 (Rattus norvegicus, UniProt Q8K3T4).
T2 construct: expressed in transfected cells
The experiment can be described thus: GPR40 calcium flux assay, HEK293 cells stably expressing rat GPR40. The class given is cell-based. As to conditions: transfected HEK293 cells stably expressing rat GPR40, Fluo 8 dye, read-out: rGPR40 Ca2+ Assay EC50. Here is the method: as §1

T1 sequence (O14842 whole entry): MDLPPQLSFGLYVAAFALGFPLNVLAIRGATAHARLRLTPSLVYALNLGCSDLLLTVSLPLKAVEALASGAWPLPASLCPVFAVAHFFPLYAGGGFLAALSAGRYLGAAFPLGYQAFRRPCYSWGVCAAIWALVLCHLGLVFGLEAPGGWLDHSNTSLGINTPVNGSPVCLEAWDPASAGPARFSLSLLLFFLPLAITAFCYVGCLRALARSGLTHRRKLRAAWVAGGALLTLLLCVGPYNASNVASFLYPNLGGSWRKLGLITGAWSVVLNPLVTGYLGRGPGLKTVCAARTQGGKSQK
T2 sequence (Q8K3T4 whole entry): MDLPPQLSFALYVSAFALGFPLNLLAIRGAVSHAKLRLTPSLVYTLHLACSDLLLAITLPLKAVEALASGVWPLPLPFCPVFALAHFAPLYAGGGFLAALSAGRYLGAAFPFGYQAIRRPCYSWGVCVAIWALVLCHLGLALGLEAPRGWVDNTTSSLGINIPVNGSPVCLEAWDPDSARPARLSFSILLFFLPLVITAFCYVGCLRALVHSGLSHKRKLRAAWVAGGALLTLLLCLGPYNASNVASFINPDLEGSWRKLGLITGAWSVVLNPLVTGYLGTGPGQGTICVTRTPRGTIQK

For the molecule `COc1ccc(F)c([C@]2(F)CC[C@H](COc3cccc([C@@H](CC(=O)O)C4CC4)c3)CC2)c1` [Cpd 19, (S)-3-Cyclopropyl-3-(3-(((1r,4S)-4-fluoro-4-(2-fluoro-5-methoxyphenyl)cyclohexyl)methoxy)phenyl)propanoic acid], the pEC50 in experiment [1] is 7.08; in experiment [2], 6.68.
In the same order, the values of `COc1cc([C@H]2CC[C@H](COc3cccc([C@H](C4CC4)[C@@](C)(F)C(=O)O)c3)CC2)c(F)cn1` [Cpd 62] are 9.60 and 9.25.
Taken in the same sequence, the figures for `COc1ccc(F)c([C@H]2CC[C@@H](COc3cccc([C@H](C4CC4)[C@H](C)C(=O)O)c3)CC2)c1` [Cpd 53, (2S,3R)-3-cyclopropyl-3-(3-(((1s,4S)-4-(2-fluoro-5-methoxyphenyl)cyclohexyl)methoxy)phenyl)-2-methylpropanoic acid] were 8.70 and 8.11.
In the same order, the values of `COc1cc([C@H]2CC[C@H](COc3cc(C(CC(=O)O)C4CC4)ccn3)CC2)c(F)cn1` (stereo partly drawn) [Cpd 8, 3-Cyclopropyl-3-(2-(((1r,4r)-4-(5-fluoro-2-methoxypyridin-4-yl)cyclohexyl)methoxy)pyridin-4-yl)propanoic acid] are 9.30 and 8.85.
`COc1ccc(F)c([C@H]2CC[C@@H](COc3cncc(C(CC(=O)O)C4CC4)c3)CC2)c1` (stereo partly drawn) [Cpd 18, 3-Cyclopropyl-3-(5-(((1s,4s)-4-(2-fluoro-5-methoxyphenyl)cyclohexyl)methoxy)pyridin-3-yl)propanoic acid]: the negative-log EC50 (pEC50) in experiment [1] is 6.65.
With `COc1ccc(F)c([C@]2(OC)CC[C@H](COc3cccc([C@@H](CC(=O)O)C4CC4)c3)CC2)c1` [Cpd 12, (S)-3-Cyclopropyl-3-(3-(((1r,4S)-4-(2-fluoro-5-methoxyphenyl)-4-methoxycyclohexyl)methoxy)phenyl)propanoic acid], the pEC50 in experiment [1] is 7.86; in experiment [2], 6.82.
In the same order, the values of `COc1ccc(Cl)c(C2CCC(COc3cccc([C@H](C4CC4)[C@@](C)(F)C(=O)O)c3)CC2)c1` (stereo partly drawn) [Cpd 64, (2R,3S)-3-(3-((4-(2-Chloro-5-methoxyphenyl)cyclohexyl)methoxy)phenyl)-3-cyclopropyl-2-fluoro-2-methylpropanoic acid] are 9.72 and 9.25.
On to `COc1ccc(F)c([C@H]2CC[C@H](COc3cccc(C(CC(=O)O)C4CC4)c3)CC2)c1` (mixture of isomers) [Cpd 56, 3-Cyclopropyl-3-(3-(((1r,4r)-4-(2-fluoro-5-methoxyphenyl)cyclohexyl)methoxy)phenyl) propanoic acid], for which the values for the negative logarithm of the EC50 (pEC50) in experiment [1] and in experiment [2] were 8.52 and 7.84, respectively.
In the case of `COc1ccc(F)c(C2CCC(COc3cccc([C@H](C4CC4)C(F)C(=O)O)c3)CC2)c1` (stereo partly drawn) [Cpd 54, (3S)-3-Cyclopropyl-2-fluoro-3-(3-(((1r,4S)-4-(2-fluoro-5-methoxyphenyl)cyclohexyl)methoxy)phenyl)propanoic acid], the results for the negative logarithm of the EC50 (pEC50) in experiment [1] and in experiment [2] were 9.30 and 8.85, respectively.
`COc1cc(C2CCC(COc3cccc([C@H](C4CC4)C(C)(F)C(=O)O)c3)CC2)ccn1` (mixture of isomers) [Cpd 69, (3S)-3-Cyclopropyl-2-fluoro-3-(3-((4-(2-methoxypyridin-4-yl)cyclohexyl)methoxy)phenyl)-2-methylpropanoic acid]: the pEC50 in experiment [1] is 8.92; in experiment [2] it was 8.82.
Consider `COc1ccc(F)c([C@H]2CC[C@H](/C=C/c3cccc([C@@H](CC(=O)O)C4CC4)c3)CC2)c1` [Cpd 28, (S)-3-cyclopropyl-3-(3-((E)-2-((1r,4S)-4-(2-fluoro-5-methoxyphenyl)cyclohexyl)vinyl)phenyl)propanoic acid], for which the negative-log EC50 (pEC50) in experiment [1] was 8.59; in experiment [2], 8.21.
Taken in the same sequence, the figures for `COc1cccc(C2CCC(COc3cccc([C@H](C4CC4)C(C)(F)C(=O)O)c3)CC2)c1` (stereo partly drawn) [Cpd 66, (3S)-3-Cyclopropyl-2-fluoro-3-(3-((4-(3-methoxyphenyl)cyclohexyl)methoxy)phenyl)-2-methylpropanoic acid] were 9.60 and 9.40.
For `COc1cc([C@H]2CC[C@@H](COc3cc(C(CC(=O)O)C4CC4)ccn3)CC2)c(F)cn1` (stereo partly drawn) [Cpd 7, 3-Cyclopropyl-3-(2-(((1s,4s)-4-(5-fluoro-2-methoxypyridin-4-yl)cyclohexyl)methoxy)pyridin-4-yl)propanoic acid], the pEC50 is 7.46 in experiment [1] and 7.10 in experiment [2].
As for `COc1ccc(F)c([C@]2(O)CC[C@H](COc3cccc([C@@H](CC(=O)O)C4CC4)c3)CC2)c1` [Cpd 6, (S)-3-Cyclopropyl-3-(3-(((1r,4S)-4-(2-fluoro-5-methoxyphenyl)-4-hydroxycyclohexyl)methoxy)phenyl)propanoic acid], the pEC50 in experiment [1] was 6.42.
`COc1ccnc(C2CCC(COc3cc([C@@H](CC(=O)O)C4CC4)ccn3)CC2)n1` (stereo partly drawn) [Cpd 49, (S)-3-Cyclopropyl-3-(2-((4-(4-methoxypyrimidin-2-yl)cyclohexyl)methoxy)pyridin-4-yl)propanoic acid]: the figures for the pEC50 in experiment [1] and in experiment [2] were 6.61 and 5.95, respectively.
Regarding `COc1cncc(C2CCC(COc3cc([C@@H](CC(=O)O)C4CC4)ccn3)CC2)n1` (stereo partly drawn) [Cpd 46, (S)-3-Cyclopropyl-3-(2-((4-(6-methoxypyrazin-2-yl)cyclohexyl)methoxy)pyridin-4-yl)propanoic acid], the negative logarithm of the EC50 (pEC50) in experiment [1] is 5.24; in experiment [2] it was under 5.00.
Regarding `COc1ccc(F)c([C@H]2CC[C@H](COc3cc(C(CC(=O)O)C4CC4)ccn3)CC2)c1` (stereo partly drawn) [Cpd 4, 3-Cyclopropyl-3-(2-(((1r,4r)-4-(2-fluoro-5-methoxyphenyl)cyclohexyl)methoxy)pyridin-4-yl) propanoic acid], the negative-log EC50 (pEC50) in experiment [1] was 9.15; in experiment [2], 8.59.
Taken in the same sequence, the figures for `COc1ccc(F)c([C@H]2CC[C@@H](COc3ccnc(C(CC(=O)O)C4CC4)c3)CC2)c1` (stereo partly drawn) [Cpd 35, 3-Cyclopropyl-3-(4-(((1s,4s)-4-(2-fluoro-5-methoxyphenyl)cyclohexyl)methoxy)pyridin-2-yl)propanoic acid] were 5.74 and 5.27.
As to `COc1cc(C2CCC(COc3cccc([C@@H](CC(=O)O)C4CC4)c3)C(C)C2)c(F)cn1` (stereo partly drawn) [Cpd 33, (3S)-3-Cyclopropyl-3-(3-((4-(5-fluoro-2-methoxypyridin-4-yl)-2-methylcyclohexyl)methoxy)phenyl)propanoic acid], the negative logarithm of the EC50 (pEC50) in experiment [1] is 8.43; in experiment [2] it was 7.76.
In the same order, the values of `COc1cc([C@H]2CC[C@@H](COc3cccc([C@@H](CC(=O)O)C4CC4)c3)CC2)c(F)cn1` [Cpd 10, (S)-3-Cyclopropyl-3-(3-(((1s,4R)-4-(5-fluoro-2-methoxypyridin-4-yl)cyclohexyl)methoxy)phenyl)propanoic acid] are 7.57 and 7.12.
Taken in the same sequence, the figures for `COc1ccc(F)c([C@H]2CC[C@H](COc3cccc([C@H](C4CC4)[C@](C)(F)C(=O)O)c3)CC2)c1` [Cpd 60, (2S,3S)-3-Cyclopropyl-2-fluoro-3-(3-(((1r,4S)-4-(2-fluoro-5-methoxyphenyl)cyclohexyl)methoxy)phenyl)-2-methylpropanoic acid] were 8.22 and 8.16.
Turning to `COc1ccc(F)c([C@H]2CC[C@@H](COc3cccc([C@@H](Cc4nnn[nH]4)C4CC4)c3)CC2)c1` [Cpd 39, 5-((S)-2-Cyclopropyl-2-(3-(((1s,4R)-4-(2-fluoro-5-methoxyphenyl)cyclohexyl)methoxy)phenyl)ethyl)-1H-tetrazole], the results for the negative logarithm of the EC50 (pEC50) in experiment [1] and in experiment [2] were 6.22 and 5.50, respectively.
Taken in the same sequence, the figures for `C[C@](F)(C(=O)O)[C@H](c1cccc(OCC2CCC(c3cc(F)ccc3F)CC2)c1)C1CC1` (stereo partly drawn) [Cpd 75, (2R,3S)-3-Cyclopropyl-3-(3-((4-(2,5-difluorophenyl)cyclohexyl)methoxy)phenyl)-2-fluoro-2-methylpropanoic acid] were 9.36 and 8.05.
In the case of `COc1cc([C@H]2CC[C@@H](COc3cncc(C(CC(=O)O)C4CC4)c3)CC2)c(F)cn1` (stereo partly drawn) [Cpd 23, 3-Cyclopropyl-3-(5-(((1s,4s)-4-(5-fluoro-2-methoxypyridin-4-yl)cyclohexyl)methoxy)pyridin-3-yl)propanoic acid], the pEC50 in experiment [1] is 6.51.
Same read-out and setting: next, `COc1cc([C@H]2CC[C@H](COc3cccc(C(CC(=O)O)C4CC4)n3)CC2)c(F)cn1` (stereo partly drawn) [Cpd 15, 3-Cyclopropyl-3-(6-(((1r,4r)-4-(5-fluoro-2-methoxypyridin-4-yl)cyclohexyl)methoxy)pyridin-2-yl)propanoic acid]: 6.86.
Same read-out and setting: next, `COc1cc([C@H]2CC[C@@H](COc3cccc(C(CC(=O)O)C4CC4)n3)CC2)c(F)cn1` (stereo partly drawn) [Cpd 16, 3-Cyclopropyl-3-(6-(((1s,4s)-4-(5-fluoro-2-methoxypyridin-4-yl)cyclohexyl)methoxy)pyridin-2-yl)propanoic acid]: 5.51.
Same read-out and setting: then `COc1ccc(F)c([C@H]2CC[C@@H](COc3cccc(C(CC(=O)O)C4CC4)n3)CC2)c1` (stereo partly drawn) [Cpd 14, 3-Cyclopropyl-3-(6-(((1 s,4s)-4-(2-fluoro-5-methoxyphenyl)cyclohexyl)methoxy)pyridin-2-yl)propanoic acid], with 5.82.

As a reminder, the pEC50 is −log10 of the EC50, conventionally taken in molar units.
